Experiment [1] has as its target HDAC-1 (Homo sapiens, UniProt Q13547). The experiment is described as follows: Inhibition of histone deacetylase enzymatic (HDAC-1) activity, Boc-Lys(Ac)-AMC fluorescence assay. The experiment is classed as biochemical. As to the method:
Inhibition of Histone Deacetylase Enzymatic (HDAC-1) Activity
(§1) The following protocol is used to assay the compounds of the invention. In the assay, the buffer used is 25 mM HEPES, pH 8.0, 137 mM NaCl, 2.7 mM KCl, 1 mM MgCl2 and the substrate is Boc-Lys(Ac)-AMC in a 50 mM stock solution in DMSO. The enzyme stock solution is 4.08 μg/mL in buffer.
(§2) The compounds are pre-incubated (2 μl in DMSO diluted to 13 μl in buffer for transfer to assay plate) with enzyme (20 μl of 4.08 μg/ml) for 10 minutes at room temperature (35 μl pre-incubation volume). The mixture is pre-incubated for 5 minutes at room temperature. The reaction is started by bringing the temperature to 37° C. and adding 15 μl substrate. Total reaction volume is 50 μl. The reaction is stopped after 20 minutes by addition of 50 μl developer, prepared as directed by Biomol (Fluor-de-Lys developer, Cat. # KI-105). A plate is incubated in the dark for 10 minutes at room temperature before reading (λEx=360 nm, λEm=470 nm, Cutoff filter at 435 nm). Similar assays are performed to measure HDAC-2 inhibitory activity

Experiment [2] addresses HDAC-2 (Homo sapiens, UniProt Q92769). The experiment is described as follows: Similar assay measuring HDAC-2 inhibitory activity. The experiment is classed as biochemical. As to the method: as §1, §2
Experiment [3] deals with HCT116 cells. Nature of the experiment: MTT assay on HCT116 cells. Type of experiment: cell-based. The following applies: 72 hours incubation, concentration reducing cell numbers to 50% of solvent treated cells. As to the method:
HCT116 cells (2000/well) are plated into 96-well tissue culture plates one day before compound treatment. Representative compounds at various concentrations were added to the cells. The cells are incubated for 72 hours at 37° C. in 5% CO2 incubator. MTT (3-[4,5-dimethylthiazol-2-yl]-2,5 diphenyl tetrazolium bromide, Sigma) is added at a final concentration of 0.5 mg/ml and incubated with the cells for 4 hours before one volume of solubilization buffer (50% N,N-dimethylformamide, 20% SDS, pH 4.7) is added onto the cultured cells. After overnight incubation, solubilized dye is quantified by calorimetric reading at 570 nM using a reference at 630 nM. OD values are converted to cell numbers according to a standard growth curve of the relevant cell line. The concentration which reduces cell numbers to 50% of that of solvent treated cells is determined as MTT IC50. A similar assay is performed on HMEC cells.

A value given as a limit tells only on which side of the number the result lay.

For 13 molecules, IC50 results are on record in patent US8030344B2, “Inhibitors of histone deacetylase” (MethylGene Inc., priority 2007, dated 2011).

The term IC50 denotes the concentration that inhibits the measured activity by half. Low readings indicate higher potency, high ones lower potency.

Sequence of HDAC-1 (Q13547 whole entry): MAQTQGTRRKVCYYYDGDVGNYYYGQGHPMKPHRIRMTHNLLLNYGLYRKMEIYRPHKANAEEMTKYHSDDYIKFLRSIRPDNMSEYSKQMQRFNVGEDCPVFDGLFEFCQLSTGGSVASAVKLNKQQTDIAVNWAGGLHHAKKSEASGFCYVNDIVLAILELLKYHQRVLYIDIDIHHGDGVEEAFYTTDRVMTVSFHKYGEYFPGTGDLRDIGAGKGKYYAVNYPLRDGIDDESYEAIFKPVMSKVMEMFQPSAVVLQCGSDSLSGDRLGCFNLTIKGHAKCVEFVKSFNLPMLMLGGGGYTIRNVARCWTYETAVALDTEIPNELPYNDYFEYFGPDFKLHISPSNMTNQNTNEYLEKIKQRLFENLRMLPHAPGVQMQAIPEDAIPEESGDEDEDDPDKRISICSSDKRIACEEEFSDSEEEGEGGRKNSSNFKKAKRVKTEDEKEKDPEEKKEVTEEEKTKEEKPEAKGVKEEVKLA
Sequence of HDAC-2 (Q92769 whole entry): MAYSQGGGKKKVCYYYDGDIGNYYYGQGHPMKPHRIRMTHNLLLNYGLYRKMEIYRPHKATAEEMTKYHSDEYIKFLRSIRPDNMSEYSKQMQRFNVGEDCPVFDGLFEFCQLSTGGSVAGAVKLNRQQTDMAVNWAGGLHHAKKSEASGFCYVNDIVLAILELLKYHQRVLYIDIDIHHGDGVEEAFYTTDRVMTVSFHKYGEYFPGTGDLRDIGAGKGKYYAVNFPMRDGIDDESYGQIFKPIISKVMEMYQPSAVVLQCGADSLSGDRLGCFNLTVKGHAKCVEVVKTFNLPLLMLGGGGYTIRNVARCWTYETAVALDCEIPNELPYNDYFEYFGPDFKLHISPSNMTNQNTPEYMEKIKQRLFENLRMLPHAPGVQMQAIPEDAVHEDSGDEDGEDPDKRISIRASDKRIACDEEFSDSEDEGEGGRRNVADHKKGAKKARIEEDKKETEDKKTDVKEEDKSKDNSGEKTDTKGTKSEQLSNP

For the molecule `COCCOC(=O)N[C@@H]1CCN(c2ccc(C(=O)Nc3ccccc3N)cc2)C1` [Compound 130], the IC50 in experiment [1] is no more than 5 µM; in experiment [2], no more than 5 µM; in experiment [3] (Homo sapiens, HCT-116), no more than 5 µM.
With `Nc1ccccc1NC(=O)c1ccc(N2CC[C@H](NC(=S)NCc3cccnc3)C2)cc1` [Compound 131, (S)-N-(2-Aminophenyl)-4-(3-(3-(pyridin-3-ylmethyl)thioureido)pyrrolidin-1-yl)benzamide], the IC50 was no more than 0.5 µM in experiment [1]; no more than 5 µM in experiment [2]; no more than 1 µM in experiment [3] (Homo sapiens, HCT-116).
Consider `CN(C)CCCOC(=O)N[C@H]1CCN(c2ccc(C(=O)Nc3ccccc3N)cc2)C1` [Compound 144, (S)-3-(Dimethylamino)propyl 1-(4-(2-aminophenylcarbamoyl)phenyl)pyrrolidin-3-yl carbamate], for which the values for the IC50 in experiment [1], in experiment [2] and in experiment [3] were no more than 0.5 µM, no more than 0.5 µM and no more than 1 µM, respectively.
For the molecule `CN1CC[C@@H](OC(=O)N[C@H]2CCN(c3ccc(C(=O)Nc4ccccc4N)cc3)C2)C1` [Compound 146, (R)-1-Methylpyrrolidin-3-yl (S)-1-(4-(2-aminophenylcarbamoyl)phenyl)pyrrolidin-3-yl carbamate], the half-inhibitory concentration (IC50) is no more than 0.5 µM in experiment [1]; no more than 0.5 µM in experiment [2]; no more than 5 µM in experiment [3] (Homo sapiens, HCT-116).
Consider `COCCOC(=O)N[C@H]1CCN(c2ncc(C(=O)Nc3ccccc3N)cn2)C1` [Compound 151, (S)-2-Methoxyethyl 1-(5-(2-aminophenylcarbamoyl)pyrimidin-2-yl)pyrrolidin-3-ylcarbamate], for which the IC50 in experiment [1] is no more than 1 µM; in experiment [3] (Homo sapiens, HCT-116) it was no more than 50 µM.
Regarding `COCCOC(=O)N[C@H]1CCN(c2ccc(C(=O)Nc3ccccc3N)cn2)C1` [Compound 154, (S)-2-Methoxyethyl 1-(5-(2-aminophenylcarbamoyl)pyridin-2-yl)pyrrolidin-3-ylcarbamate], the IC50 is no more than 0.5 µM in experiment [1]; no more than 5 µM in experiment [2]; no more than 5 µM in experiment [3] (Homo sapiens, HCT-116).
Consider `CC(=O)O[C@H]1CCN(c2ccc(C(=O)Nc3ccccc3N)cc2)C1` [Compound 159, (S)-1-(4-(2-Aminophenylcarbamoyl)phenyl)pyrrolidin-3-yl acetate], for which the figures for the IC50 in experiment [1] and in experiment [2] were no more than 0.5 µM and no more than 1 µM, respectively.
For the molecule `Nc1ccccc1NC(=O)c1ccc(N2CC[C@H](O)C2)cc1` [Compound 160, (S)-N-(2-Aminophenyl)-4-(3-hydroxypyrrolidin-1-yl)benzamide], the IC50 in experiment [1] and in experiment [2] was no more than 1 µM each time.
Turning to `CN(C)[C@H]1CCN(c2ccc(C(=O)Nc3ccccc3N)cc2)C1` [Compound 165, (S)-N-(2-Aminophenyl)-4-(3-(dimethylamino)pyrrolidin-1-yl)benzamide], the IC50 in experiment [1] is no more than 1 µM; in experiment [2] it was no more than 5 µM.
For the molecule `Nc1ccccc1NC(=O)c1ccc(N2CC[C@H](NC(=O)OCCN3CCOCC3)C2)cc1` [Compound 195, (S)-2-morpholinoethyl 1-(4-(2-aminophenylcarbamoyl)-phenyl)pyrrolidin-3-ylcarbamate], the IC50 in experiment [1] is no more than 0.5 µM; in experiment [2], no more than 1 µM; in experiment [3] (Homo sapiens, HCT-116) it was no more than 5 µM.
Turning to `COC(=O)N(Cc1cccnc1)[C@H]1CCN(c2ccc(C(=O)Nc3ccccc3N)cc2)C1` [Compound 196, (S)-methyl 1-(4-(2-aminophenylcarbamoyl)phenyl)-pyrrolidin-3-yl(pyridin-3-ylmethyl)carbamate], the half-maximal inhibitory concentration (IC50) in experiment [1] was no more than 0.5 µM; in experiment [2], no more than 0.5 µM; in experiment [3] (Homo sapiens, HCT-116), no more than 5 µM.
On to `Nc1ccccc1NC(=O)c1ccc(N2CC[C@H](NC(=O)OCC3c4ccccc4-c4ccccc43)C2)cc1` [Compound 201, (S)-(9H-fluoren-9-y)methyl 1-(4-(2-aminophenylcarbamoyl)-phenyl)pyrrolidin-3-ylcarbamate], for which the 50% inhibitory concentration (IC50) was no more than 0.1 µM in experiment [1] and no more than 0.5 µM in experiment [2].
In the case of “(S)-Methyl 1-(5-(2-aminophenyl carbamoyl)pyrimidin-2-yl) pyrrolidin-3-yl carbamate [Compound 152]”, the IC50 in experiment [1] is no more than 1 µM; in experiment [3] it was no more than 10 µM.
